For 71 compounds, EC50 results are on record in ChEMBL document CHEMBL3400000, “The discovery of potent agonists for GPR88, an orphan GPCR, for the potential treatment of CNS disorders” (Bioorg Med Chem Lett, 2015).

Molecules are shown by their SMILES.

G protein-coupled receptor 88, sequence (Q9GZN0 whole entry): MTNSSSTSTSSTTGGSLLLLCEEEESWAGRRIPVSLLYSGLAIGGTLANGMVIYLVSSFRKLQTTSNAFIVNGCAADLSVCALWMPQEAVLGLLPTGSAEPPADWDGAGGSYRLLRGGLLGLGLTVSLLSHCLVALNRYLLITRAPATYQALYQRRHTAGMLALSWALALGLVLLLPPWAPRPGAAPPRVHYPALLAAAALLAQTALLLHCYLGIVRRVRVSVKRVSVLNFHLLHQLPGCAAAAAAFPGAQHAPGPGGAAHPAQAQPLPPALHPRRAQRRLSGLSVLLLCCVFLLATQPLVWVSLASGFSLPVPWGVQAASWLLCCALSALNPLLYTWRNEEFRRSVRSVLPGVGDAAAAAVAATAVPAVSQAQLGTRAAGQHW

This test concerns the target G protein-coupled receptor 88 (Homo sapiens, UniProt Q9GZN0). In words: Agonist activity at GPR88 (unknown origin) transfected into cells assessed as cAMP accumulation by HTRF assay. The class given is functional.
As a reminder, the EC50 is the concentration needed to bring the measured effect to its halfway point. In the case of `CC[C@H](C)[C@H](N)CN(C(=O)[C@@H]1C[C@H]1c1cccc(C)c1)c1ccc(-c2ccccc2)cc1`, the EC50 was 1200 nM.
Turning to `CC[C@H](C)[C@H](N)CN(C(=O)[C@@H]1C[C@H]1c1ccc(C#N)cc1)c1ccc(-c2ccccc2)cc1`, the EC50 is more than 25000 nM.
Regarding `CC[C@H](C)[C@H](N)CN(C(=O)[C@@H]1C[C@H]1c1cccc(C#N)c1)c1ccc(-c2ccccc2)cc1`, the EC50 was determined as 1600 nM.
Under `CC[C@H](C)[C@H](N)CN(C(=O)[C@@H]1C[C@H]1C1CCCCC1)c1ccc(-c2ccccc2)cc1` stands more than 25000 nM.
Under `CC[C@H](C)[C@H](N)CN(C(=O)[C@@H]1C[C@H]1c1cc(F)ccc1F)c1ccc(-c2ccccc2)cc1` stands 770 nM.
As to `CC[C@H](C)[C@H](N)CN(C(=O)[C@@H]1C[C@H]1c1cc(F)cc(F)c1)c1ccc(-c2ccccc2)cc1`, the EC50 came to 960 nM.
On to `CC[C@H](C)[C@H](N)CN(C(=O)[C@@H]1C[C@H]1c1ccc(F)c(F)c1)c1ccc(-c2ccccc2)cc1`, for which the EC50 came to 720 nM.
On to `CC[C@H](C)[C@H](N)CN(C(=O)[C@@H]1C[C@H]1c1ccc(F)cc1F)c1ccc(-c2ccccc2)cc1`, for which the EC50 came out at 1300 nM.
The same measure for `CC[C@H](C)[C@H](N)CN(C(=O)[C@@H]1C[C@H]1c1c(F)cccc1F)c1ccc(-c2ccccc2)cc1`: 11000 nM; for `CC[C@H](C)[C@H](N)CN(C(=O)[C@@H]1C[C@H]1c1ccccn1)c1ccc(-c2ccccc2)cc1`: 130 nM; for `CC[C@H](C)[C@H](N)CN(C(=O)[C@@H]1C[C@H]1c1cccnc1)c1ccc(-c2ccccc2)cc1`: 1500 nM.
The same measure for `CC[C@H](C)[C@H](N)CN(C(=O)[C@@H]1C[C@H]1c1ccncc1)c1ccc(-c2ccccc2)cc1`: 1500 nM; for `CC[C@H](C)[C@H](N)CN(C(=O)[C@@H]1C[C@H]1c1ncccn1)c1ccc(-c2ccccc2)cc1`: 130 nM; for `CC[C@H](C)[C@H](N)CN(C(=O)[C@@H]1C[C@H]1c1cncnc1)c1ccc(-c2ccccc2)cc1`: 19000 nM.
The same measure for `CC[C@H](C)[C@H](N)CN(C(=O)[C@@H]1C[C@H]1c1nccs1)c1ccc(-c2ccccc2)cc1`: 210 nM; for `CC[C@H](C)[C@H](N)CN(C(=O)[C@@H]1C[C@H]1c1cccs1)c1ccc(-c2ccccc2)cc1`: 360 nM.
Regarding `CC[C@H](C)[C@H](N)CN(C(=O)[C@@H]1C[C@H]1c1ccsc1)c1ccc(-c2ccccc2)cc1`, the EC50 was found to be 450 nM.
`CC[C@H](C)[C@H](N)CN(C(=O)[C@@H]1C[C@H]1c1ccoc1)c1ccc(-c2ccccc2)cc1`: the EC50 is 580 nM.
Under `CC[C@H](C)[C@H](N)CN(C(=O)[C@@H]1C[C@H]1c1nc(C)cs1)c1ccc(-c2ccccc2)cc1` stands 730 nM; under `CC[C@H](C)[C@H](N)CN(C(=O)[C@@H]1C[C@H]1c1ncc(C)s1)c1ccc(-c2ccccc2)cc1`, 1300 nM; under `CC[C@H](C)[C@H](N)CN(C(=O)[C@@H]1C[C@H]1c1nc(C)c(C)s1)c1ccc(-c2ccccc2)cc1`, 3600 nM.
`CC[C@H](C)[C@H](N)CN(C(=O)[C@@H]1C[C@H]1c1csc(C)n1)c1ccc(-c2ccccc2)cc1`: the EC50 came out at 1500 nM.
In the case of `CC(C)C[C@H](N)CN(C(=O)[C@@H]1C[C@H]1c1ccccc1)c1cccc(-c2ccccc2)c1`, the EC50 was found to be 23000 nM.
Regarding `CC(C)C[C@H](N)CN(C(=O)[C@@H]1C[C@H]1c1ccccc1)c1ccccc1-c1ccccc1`, the EC50 was determined as 6200 nM.
`CC(C)C[C@H](N)CN(C(=O)[C@@H]1C[C@H]1c1ccccc1)c1ccc(-c2cccnc2)cc1`: the EC50 turned out to be 10000 nM.
Regarding `CC(C)C[C@H](N)CN(C(=O)[C@@H]1C[C@H]1c1ccccc1)c1ccc(-c2ccncc2)cc1`, the EC50 is 13000 nM.
Turning to `CC(C)C[C@H](N)CN(C(=O)[C@@H]1C[C@H]1c1ccccc1)c1ccc(-c2ccsc2)cc1`, the EC50 amounted to 1200 nM.
The same measure for `CC(C)C[C@H](N)CN(C(=O)[C@@H]1C[C@H]1c1ccccc1)c1ccc(-c2cccs2)cc1`: 1500 nM; for `CC(C)C[C@H](N)CN(C(=O)[C@@H]1C[C@H]1c1ccccc1)c1ccc(-c2ccoc2)cc1`: 2000 nM.
For the compound `CC(C)C[C@H](N)CN(C(=O)[C@@H]1C[C@H]1c1ccccc1)c1ccc(C2=CCCC2)cc1`, the EC50 amounted to 1200 nM.
Under `CC(C)C[C@H](N)CN(C(=O)[C@@H]1C[C@H]1c1ccccc1)c1ccc(C2=CCCCCC2)cc1` stands 2100 nM; under `CC(C)C[C@H](N)CN(C(=O)[C@@H]1C[C@H]1c1ccccc1)c1ccc(C2=CCCCC2)cc1`, 1200 nM.
Under `Cc1ccc(-c2ccc(N(C[C@@H](N)CC(C)C)C(=O)[C@@H]3C[C@H]3c3ccccc3)cc2)cc1` stands 360 nM; under `Cc1cccc(-c2ccc(N(C[C@@H](N)CC(C)C)C(=O)[C@@H]3C[C@H]3c3ccccc3)cc2)c1`, 1200 nM.
As for `Cc1ccccc1-c1ccc(N(C[C@@H](N)CC(C)C)C(=O)[C@@H]2C[C@H]2c2ccccc2)cc1`, the EC50 came out at 3400 nM.
With `COc1ccc(-c2ccc(N(C[C@@H](N)CC(C)C)C(=O)[C@@H]3C[C@H]3c3ccccc3)cc2)cc1`, the EC50 was determined as 330 nM.
For the compound `COc1cccc(-c2ccc(N(C[C@@H](N)CC(C)C)C(=O)[C@@H]3C[C@H]3c3ccccc3)cc2)c1`, the EC50 is 1100 nM.
Under `COc1ccccc1-c1ccc(N(C[C@@H](N)CC(C)C)C(=O)[C@@H]2C[C@H]2c2ccccc2)cc1` stands 3200 nM; under `CC(C)C[C@H](N)CN(C(=O)[C@@H]1C[C@H]1c1ccccc1)c1ccc(-c2ccc(F)cc2)cc1`, 900 nM; under `CC(C)C[C@H](N)CN(C(=O)[C@@H]1C[C@H]1c1ccccc1)c1ccc(-c2cccc(F)c2)cc1`, 2100 nM.
The same measure for `CC(C)C[C@H](N)CN(C(=O)[C@@H]1C[C@H]1c1ccccc1)c1ccc(-c2ccccc2F)cc1`: 1600 nM.
Under `CC(C)C[C@H](N)CN(C(=O)[C@@H]1C[C@H]1c1ccccc1)c1ccc(-c2ccc(C#N)cc2)cc1` stands 670 nM; under `CC(C)C[C@H](N)CN(C(=O)[C@@H]1C[C@H]1c1ccccc1)c1ccc(-c2cccc(C#N)c2)cc1`, 4500 nM.
Take `CC(C)C[C@H](N)CN(C(=O)[C@@H]1C[C@H]1c1ccccc1)c1ccc(-c2ccc(Cl)cc2)cc1`: the EC50 amounted to 640 nM.
With `CC(C)C[C@H](N)CN(C(=O)[C@@H]1C[C@H]1c1ccccc1)c1ccc(-c2ccccc2Cl)cc1`, the EC50 was determined as 3800 nM.
Consider `CC[C@H](C)[C@H](N)CN(C(=O)[C@@H]1C[C@H]1c1ccccc1)c1ccc(-c2ccccc2)cc1`, for which the EC50 came out at 230 nM.
The same measure for `CCc1ccc(-c2ccc(N(C[C@@H](N)[C@@H](C)CC)C(=O)[C@@H]3C[C@H]3c3ccccc3)cc2)cc1`: 44 nM.
The same measure for `CCCc1ccc(-c2ccc(N(C[C@@H](N)[C@@H](C)CC)C(=O)[C@@H]3C[C@H]3c3ccccc3)cc2)cc1`: 61 nM; for `CC[C@H](C)[C@H](N)CN(C(=O)[C@@H]1C[C@H]1c1ccccc1)c1ccc(-c2ccc(C(C)(C)C)cc2)cc1`: 750 nM; for `CC[C@H](C)[C@H](N)CN(C(=O)[C@@H]1C[C@H]1c1ccccc1)c1ccc(-c2ccc(C(F)(F)F)cc2)cc1`: 340 nM.
Under `CC[C@H](C)[C@H](N)CN(C(=O)[C@@H]1C[C@H]1c1ccccc1)c1ccc(-c2ccc(OC(C)C)cc2)cc1` stands 72 nM; under `CCOc1ccc(-c2ccc(N(C[C@@H](N)[C@@H](C)CC)C(=O)[C@@H]3C[C@H]3c3ccccc3)cc2)cc1`, 90 nM; under `CC[C@H](C)[C@H](N)CN(C(=O)[C@@H]1C[C@H]1c1ccccc1)c1ccc(-c2ccc(OC)cc2)cc1`, 120 nM.
`CC[C@H](C)[C@H](N)CN(C(=O)[C@@H]1C[C@H]1c1ccccc1)c1ccc(-c2ccc(Oc3ccccc3)cc2)cc1`: the EC50 is 94 nM.
Turning to `CC[C@H](C)[C@H](N)CN(C(=O)[C@@H]1C[C@H]1c1ccccc1)c1ccc(-c2ccc(OC(F)(F)F)cc2)cc1`, the EC50 was 170 nM.
Turning to `CC[C@H](C)[C@H](N)CN(C(=O)[C@@H]1C[C@H]1c1ccccc1)c1ccc(-c2ccc(COC)cc2)cc1`, the EC50 came to 35 nM.
Turning to `CC[C@H](C)[C@H](N)CN(C(=O)[C@@H]1C[C@H]1c1ccccc1)c1ccc(-c2ccc(COC(C)(C)C)cc2)cc1`, the EC50 was determined as 280 nM.
Under `CC[C@H](C)[C@H](N)CN(C(=O)[C@@H]1C[C@H]1c1ccccc1)c1ccc(-c2ccc(CO)cc2)cc1` stands 1100 nM; under `CC[C@H](C)[C@H](N)CN(C(=O)[C@@H]1C[C@H]1c1ccccc1)c1ccc(-c2ccc(CC(=O)OC)cc2)cc1`, 66 nM.
In the case of `CC[C@H](C)[C@H](N)CN(C(=O)[C@@H]1C[C@H]1c1ccccc1)c1ccc(-c2ccc(CCC(=O)OC)cc2)cc1`, the EC50 was 110 nM.
Under `CCOC(=O)c1ccc(-c2ccc(N(C[C@@H](N)[C@@H](C)CC)C(=O)[C@@H]3C[C@H]3c3ccccc3)cc2)cc1` stands 260 nM; under `CC[C@H](C)[C@H](N)CN(C(=O)[C@@H]1C[C@H]1c1ccccc1)c1ccc(-c2ccc(C(=O)N(C)C)cc2)cc1`, 980 nM.
For `CC[C@H](C)[C@H](N)CN(C(=O)[C@@H]1C[C@H]1c1ccccc1)c1ccc(-c2ccc(N)cc2)cc1`, the EC50 amounted to 320 nM.
The same measure for `CC[C@H](C)[C@H](N)CN(C(=O)[C@@H]1C[C@H]1c1ccccc1)c1ccc(-c2ccc(NS(C)(=O)=O)cc2)cc1`: 1200 nM; for `CC[C@H](C)[C@H](N)CN(C(=O)[C@@H]1C[C@H]1c1ccccc1)c1ccc(-c2ccc(NC(C)=O)cc2)cc1`: 5500 nM.
With `CC[C@H](C)[C@H](N)CN(C(=O)[C@@H]1C[C@H]1c1ccccc1)c1ccc(-c2ccc(CN(C)C)cc2)cc1`, the EC50 came to 460 nM.
Under `CC[C@H](C)[C@H](N)CN(C(=O)[C@@H]1C[C@H]1c1ccccc1)c1ccc(-c2ccc(CNC)cc2)cc1` stands 6400 nM.
As for `CC[C@H](C)[C@H](N)CN(C(=O)[C@@H]1C[C@H]1c1ccccc1)c1ccc(-c2ccc(CN)cc2)cc1`, the EC50 was more than 30000 nM.
The same measure for `CC[C@H](C)[C@H](N)CN(C(=O)[C@H]1C[C@@H]1c1ccccn1)c1ccc(-c2ccc(COC)cc2)cc1`: 1200 nM; for `CC[C@H](C)[C@H](N)CN(C(=O)[C@@H]1C[C@H]1c1ccccn1)c1ccc(-c2ccc(COC)cc2)cc1`: 15 nM.
On to `CC[C@H](C)[C@H](N)CN(C(=O)[C@@H]1C[C@H]1c1ccccn1)c1ccc(-c2ccc(OC(C)C)cc2)cc1`, for which the EC50 came to 3.5 nM.
